Experimental data as given in publication PMC12562379, “Facile Synthesis of N-vinylindoles via Knoevenagel Condensation: Molecular Features and Biological Activities” (International Journal of Molecular Sciences, 2025).
Values after ≈ are worked out from the molar mass of the structure shown. Counter-ions that a name gives are not always drawn.

Legend:
[1] = molecular target: T1, AGE2-BSA/sRAGE interaction (Homo sapiens, UniProt Q15109); assay: ELISA AGE2-BSA/sRAGE inhibitory screening; assay type: binding
T1 construct: purchased Creative BioMart
T1 sequence (Q15109 23-342 limits assumed): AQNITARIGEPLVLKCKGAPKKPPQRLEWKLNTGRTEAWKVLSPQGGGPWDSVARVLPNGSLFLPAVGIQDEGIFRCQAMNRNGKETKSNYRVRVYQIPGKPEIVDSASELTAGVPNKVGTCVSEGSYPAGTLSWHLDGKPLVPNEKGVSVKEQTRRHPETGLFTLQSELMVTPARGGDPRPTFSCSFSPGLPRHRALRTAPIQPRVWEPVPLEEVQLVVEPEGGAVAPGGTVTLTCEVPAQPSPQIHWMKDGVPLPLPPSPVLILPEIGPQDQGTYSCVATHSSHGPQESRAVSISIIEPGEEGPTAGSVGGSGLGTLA
Protocol: The in vitro inhibitor screening of AGE2 (glyceraldehyde-modified AGE)-sRAGE interaction (soluble RAGE) was performed using a 96-well AGE-BSA-coated plate (Creative BioMart® ELISA kit, Shirley, NY, USA), according to the manufacturer’s instructions. 100 UA/mL soluble RAGE (sRAGE) was incubated with 100 μM of the tested compounds or 0.05% DMSO as a negative control on an AGE2-BSA-coated plate at room temperature for 60 min, shaking at 300 rpm on an orbital microplate shaker. After incubation, the wells were washed 4 times with wash buffer and horseradish peroxidase (HRP)-labeled anti-RAGE antibody was added and the plate was further incubated at room temperature for 60 min, shaking at 300 rpm on an orbital microplate shaker. After incubation, the wells were washed 4 times with wash buffer and the Substrate Reagent was added to each well. After an incubation at room temperature for 5 min, the HRP-labeled antibody sRAGE-AGE complex was then detected by measuring the absorbance at 450 nm using the microplate reader Varioskan (Thermo Fischer Scientific). These experiments were repeated two times.

S. aureus MRSA 12673 = assay: Microbroth dilution assay; assay type: cell-based; details: Staphylococcus aureus, S. aureus MRSA 12673; for MIC: read-out: MIC
E. coli ATCC 8739 = assay: Microbroth dilution assay; assay type: cell-based; details: Escherichia coli, ATCC8739, E. coli ATCC 8739; for MIC: read-out: MIC
Protocol: (§1) The minimum inhibitory concentration (MIC) and minimum bactericidal/fungicidal concentration (MBC/MFC) of the tested compounds were determined by the microbroth dilution technique using 96-well plates based on the methodology described in the EUCAST (European Committee on Antimicrobial Susceptibility Testing) standards. Reference and clinical strains of Gram-positive (Staphylococcus aureus ATCC 6538, Staphylococuccus aureus MRSA 6347) and Gram-negative (Escherichia coli ATCC 8739) bacteria, and yeast (Candida albicans ATCC 10231, Candida glabrata ATCC 2001) were used for the assay. The studies were carried out in the Mueller–Hinton (MH) broth for bacteria and RPMI 1640 broth + MOPS (Sigma-Aldrich, Poland) buffer in the case of yeast. The dry test samples were dissolved in DMSO (dimethyl sulfoxide), resulting in a final concentration of 15 mg/mL, and then diluted in a geometric progression. Ampicillin (Sigma-Aldrich, Poland) acted as a control sample (512 to 4 µg/mL) for bacteria and ketoconazole (128 to 1 µg/mL) (Sigma-Aldrich, Poland) acted as a control sample for yeast. The cultures of microorganisms were prepared by transferring cells from the stock cultures to tubes with the appropriate broth and incubated with agitation in an aerobic atmosphere for 18 ± 2 h at 35 ± 1 °C; next, they were diluted to achieve an optical density corresponding to 5 × 105 (bacteria) or 2 × 105 (yeast) colony-forming units per mL (cfu/mL). An appropriate media (96 µL), along with the tested compounds with a final concentration range of 300–3.1 µg/mL (4 µL) and next microbial suspension (100 µL) were added to each well. Plates with samples were incubated in adequate conditions described above and microbial growth was assessed. […] (>90%; ketoconazole) but 50% (for other compounds) inhibits visible growth of yeasts. Next, as a control of microbial viability, 100 µL of the samples from each well without growth was inoculated on the MH or RPMI agar plates and incubated for 18 ± 2 h at 35 ± 1 °C and finally, the CFU was counted. The MBC/MFC was determined as the minimum concentration of compounds required to kill 99.9% the organisms.

[2] = test system: HeLa, SKOV-3, AGS (and HaCaT) cell lines; assay: MTT assay, ranges stated over several cell lines; assay type: cell-based, human; details: for IC50: Homo sapiens
Protocol: (§2) The human ovarian SKOV-3, gastric adenocarcinoma AGS, cervical HeLa cell lines and non-cancerous keratinocytes HaCaT were obtained from the American Type Culture Collection (ATCC, Manassas, VA, USA). The cell lines were cultured in McCoy’s Medium, Dulbecco’s Modified Eagle’s Medium/F12, and DMEM, respectively (Merck Millipore, Burlington, MA, USA). Penicillin (100 units/mL), streptomycin ([…]), and 10% (v/v) fetal bovine serum (FBS) were added to all the media. The cells were incubated at 37 °C and 5% CO2.
(§3) To estimate the cytotoxic activity of the obtained compounds 2a-i, MTT assay was used. The cells (5 × 10^3 cells/well) were treated with the compounds in a range of concentrations 1–150 µg/mL. […] After 24 h, MTT solution (0.5 mg/mL) was added to the cells. Formazan crystals were dissolved in DMSO and the absorbance was measured with a microtiter plate reader (Epoch, BioTek Instruments, Winooski, VT, USA).

C. albicans ATCC 10231 = assay: Microbroth dilution assay; assay type: cell-based, Candida albicans; details: Candida albicans, ATCC10231, C. albicans ATCC 10231; for MFC: read-out: MFC; for MIC: read-out: MIC
Protocol: as §1

C. glabrata ATCC 2001 = assay: Microbroth dilution assay; assay type: cell-based, Candida glabrata; details: Nakaseomyces glabratus, ATCC2001
Protocol: as §1

S. aureus ATCC 6535 = assay: Microbroth dilution assay; assay type: cell-based; details: Staphylococcus aureus, ATCC6535
SKOV-3 = assay: MTT assay, cytotoxic activity; assay type: cell-based, human; details: SKOV-3, MTT, 24 h, n = 12; for IC50: Homo sapiens, SK-OV-3
Protocol: as §2, §3

HeLa = assay: MTT assay, cytotoxic activity; assay type: cell-based, human; details: 24 h, n = 12; for IC50: Homo sapiens
Protocol: as §2, §3

AGS = assay: MTT assay, cytotoxic activity; assay type: cell-based, human; details: 24 h, n = 12; for IC50: Homo sapiens
Protocol: as §2, §3

HaCaT = assay: MTT assay, cytotoxic activity on non-cancerous keratinocytes; assay type: cell-based; details: Homo sapiens, 24 h, n = 12
Protocol: as §2, §3

[3] = test system: S. aureus ATCC 6535, S. aureus MRSA 12673 and other tested bacterial and yeast strains; assay: Microbroth dilution assay, ranges stated over several strains; assay type: cell-based; details: all tested microorganisms
[4] = range over HeLa and SKOV-3 cell lines
[5] = range over the cancer cell lines HeLa, SKOV-3 and AGS

SMILES	inhibition at 100 µM [1] [%]	MBC (S. aureus MRSA 12673) [µg/mL]	MIC (S. aureus MRSA 12673) [µg/mL]	MBC (E. coli ATCC 8739) [µg/mL]	MIC (E. coli ATCC 8739) [µg/mL]	IC50 [2, 4] [µg/mL]	IC50 [2, 5] [µg/mL]	MFC (C. albicans ATCC 10231) [µg/mL]	MIC (C. albicans ATCC 10231) [µg/mL]	MFC (C. glabrata ATCC 2001) [µg/mL]	MIC (C. glabrata ATCC 2001) [µg/mL]	MBC (S. aureus ATCC 6535) [µg/mL]	MIC (S. aureus ATCC 6535) [µg/mL]	IC50 (SKOV-3) [µg/mL]	IC50 (HeLa) [µg/mL]	IC50 (AGS) [µg/mL]	IC50 (HaCaT) [µg/mL]	other results
Brc1ccc(/C=C(/C2=NCCN2)n2ccc3ccccc32)cc1 [Compound 2f, (Z)-1-[2-(4-bromophenyl)-1-(4,5-dihydro-1H-imidazol-2-yl)vinyl]-1H-indole]	46.6	110 (≈ 300 µM)	55 (≈ 150 µM)	110 (≈ 300 µM)	110 (≈ 300 µM)	2.37 to 2.76 (≈ 6.47 to 7.54 µM)	2.37 to 11.1 (≈ 6.47 to 30.4 µM)	110 (≈ 300 µM)	110 (≈ 300 µM)	220 (≈ 601 µM)	220 (≈ 601 µM)	55 (≈ 150 µM)	27.5 (≈ 75.1 µM)	2.76 ± 0.18 (≈ 7.54 µM)	2.37 ± 0.15 (≈ 6.47 µM)	11.1 ± 1.24 (≈ 30.4 µM)	3.13 ± 0.09 (≈ 8.55 µM)	–
O=[N+]([O-])c1ccc(/C=C(/C2=NCCN2)n2ccc3ccccc32)cc1 [Compound 2g, (Z)-1-[1-(4,5-dihydro-1H-imidazol-2-yl)-2-(4-nitrophenyl)vinyl]-1H-indole]	–	> 220	110 (≈ 331 µM)	> 220	220 (≈ 662 µM)	5.6 to 7.06 (≈ 16.8 to 21.2 µM)	–	> 220	> 220	> 220	> 220	110 (≈ 331 µM)	55 (≈ 165 µM)	7.06 ± 0.62 (≈ 21.2 µM)	5.6 ± 0.57 (≈ 16.8 µM)	10.14 ± 0.08 (≈ 30.5 µM)	9.15 ± 0.74 (≈ 27.5 µM)	–
C(=C(\C1=NCCN1)n1ccc2ccccc21)/c1cccc2ccccc12 [Compound 2h, (Z)-1-[1-(4,5-dihydro-1H-imidazol-2-yl)-2-(naphthalen-1-yl)vinyl]-1H-indole]	36.4	240 (≈ 711 µM)	120 (≈ 356 µM)	> 240	> 240	–	10.1 to 18.9 (≈ 29.9 to 56 µM)	> 240	> 240	240 (≈ 711 µM)	240 (≈ 711 µM)	240 (≈ 711 µM)	120 (≈ 356 µM)	10.39 ± 0.1 (≈ 30.8 µM)	10.1 ± 1.12 (≈ 29.9 µM)	18.9 ± 1.81 (≈ 56 µM)	17.9 ± 1.93 (≈ 53.2 µM)	Inhibition (%) of AGE2-BSA/sRAGE interaction ([1]; 100 µM): 36.3%; MBC/MFC [3]: ≥ 240 µg/mL
CC(=O)N1CCN(c2ccc(OCC3COC(Cn4ccnc4)(c4ccc(Cl)cc4Cl)O3)cc2)CC1 (stereo not drawn) [Ketoconazole, reference compound]	–	–	–	–	–	–	–	> 128	> 128	128 (≈ 241 µM)	64 (≈ 120 µM)	–	–	–	–	–	–	–
O=C1[O][Pt]2([NH][C@@H]3CCCC[C@H]3[NH]2)[O]C1=O [Oxaliplatin, reference compound]	–	–	–	–	–	–	–	–	–	–	–	–	–	–	–	–	–	IC50 (range over cell lines) [2, 4]: 35.76 to 102.16 µg/mL; IC50 ± SD (SKOV-3): 102.16 ± 9.26 µg/mL; IC50 ± SD (HeLa): 35.76 ± 1.72 µg/mL; IC50 ± SD (AGS): 17.90 ± 1.20 µg/mL
CC[C@]1(O)C[C@@H]2CN(CCc3c([nH]c4ccccc34)[C@@](C(=O)OC)(c3cc4c(cc3OC)N(C)[C@H]3[C@@](O)(C(=O)OC)[C@H](OC(C)=O)[C@]5(CC)C=CCN6CC[C@]43[C@@H]65)C2)C1 [Vinblastine sulfate, reference compound]	–	–	–	–	–	–	–	–	–	–	–	–	–	0.008 ± 0.0003	0.005 ± 0.0004	–	–	–
